# Structures can show the parent of a compound that is named as a salt.
# Biological target: T1, human DβH (Homo sapiens, UniProt P09172)
# T1 construct: SK-N-SH cells (ATCC HTB-11), a human neuroblastoma derived cell line, were used as a source of human DβH; host or cells: SK-N-SH cells
# T1 sequence (P09172 1-617): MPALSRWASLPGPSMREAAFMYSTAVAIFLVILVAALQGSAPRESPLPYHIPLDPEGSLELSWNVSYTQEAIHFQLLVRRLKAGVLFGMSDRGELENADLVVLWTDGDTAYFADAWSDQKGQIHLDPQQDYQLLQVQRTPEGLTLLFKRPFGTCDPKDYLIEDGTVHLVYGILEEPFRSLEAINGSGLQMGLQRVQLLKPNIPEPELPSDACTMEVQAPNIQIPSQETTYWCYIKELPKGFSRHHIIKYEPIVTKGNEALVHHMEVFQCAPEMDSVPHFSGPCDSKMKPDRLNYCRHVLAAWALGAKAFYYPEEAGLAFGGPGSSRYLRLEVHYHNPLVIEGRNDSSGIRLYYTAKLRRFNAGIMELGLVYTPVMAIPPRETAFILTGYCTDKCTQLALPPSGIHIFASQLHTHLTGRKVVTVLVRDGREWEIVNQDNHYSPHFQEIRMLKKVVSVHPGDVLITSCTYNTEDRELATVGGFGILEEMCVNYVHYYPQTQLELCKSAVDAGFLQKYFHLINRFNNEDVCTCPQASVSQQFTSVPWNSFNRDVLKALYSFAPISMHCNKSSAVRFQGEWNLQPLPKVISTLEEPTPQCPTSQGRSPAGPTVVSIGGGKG
# Assay: DβH activity (β-hydroxylation of dopamine to noradrenaline) in SK-N-SH cells
# Type: cell-based
# Conditions: for DβH activity in SK-N-SH cells, Mean ± SEM: compound 5 μM, 50 mM dopamine; for inhibition of DβH activity (in words): 5 μM, as listed in Table 1; for remaining activity at 5 µM: SK-N-SH, 0.75 h, read-out: DβH activity in SK-N-SH cells, Mean ± SEM; for IC50 values against human DβH activity (in words): concentration-dependent decrease in β-hydroxylation of dopamine; for IC50: read-out: IC50 for inhibition of DβH in SK-N-SH cells
# Protocol: SK-N-SH cells (ATCC HTB-11), a human neuroblastoma derived cell line, were used as a source of human DβH. SK-N-SH cells cultured in 24 well plates were preincubated for 20 min in a reaction medium containing 200 mM sodium acetate, 30 mM N-ethylmaleimide, 5 μM copper sulphate, 0.5 mg/ml catalase aqueous solution, 1 mM pargyline, 10 mM sodium fumarate and 20 mM ascorbic acid. […] During preincubation and incubation, the cells were continuously shaken and maintained at 37° C. The reaction was terminated by the addition of 0.2 M perchloric acid. The acidified samples were stored at 4° C. before injection into the high pressure liquid chromatograph for the assay of noradrenaline.
Structure (SMILES),inhibition of DβH activity (in words),remaining activity at 5 µM,further results
"COc1ccc2c(c1)C[C@@H](n1c(CCN)c[nH]c1=S)CS2.Cl (racemic) [Compound 30, (R,S)-5-(2-aminoethyl)-1-(6-methoxythiochroman-3-yl)-1,3-droimidazole-2-thione hydrochloride]",,,"DβH activity in SK-N-SH cells, Mean ± SEM: 99.4 ± 2.8 % of control"
"Cl.NCCc1c[nH]c(=S)n1[C@H]1CSc2ccc(O)cc2C1 (racemic) [Compound 31, (R,S)-5-(2-aminoethyl)-1-(6-hydroxythiochroman-3-yl)-1,3-dihydroimidazole-2-thione hydrochloride]",,,"DβH activity in SK-N-SH cells, Mean ± SEM: 27.3 ± 0.4 % of control"
"Cl.NCCc1c[nH]c(=S)n1[C@H]1CCc2c(F)cc(F)cc2C1 [Compound 2, (S)-5-(2-aminoethyl)-1-(5,7-difluoro-1,2,3,4-tetrahydronaphthalen-2-yl)-1,3-dihydroimidazole-2-thione hydrochloride]",markedly inhibit,1.6 ± 0.3%,IC50 values against human DβH activity (in words): low nM range; IC50: 60 nM
"Cl.NCc1c[nH]c(=S)n1[C@H]1COc2c(F)cc(F)cc2C1 [Compound 3, (R)-5-aminomethyl-1-(6,8-difluorochroman-3-yl)-1,3-dihydroimidazole-2-thione hydrochloride]",markedly inhibit,4.1 ± 0.6%,IC50 values against human DβH activity (in words): low nM range; IC50: 91 nM
"Cl.NCCCc1c[nH]c(=S)n1[C@H]1CCc2c(F)cc(F)cc2C1 [Compound 5, (S)-5-(3-aminopropyl)-1-(5,7-difluoro-1,2,3,4-tetrahydronaphthalen-2-yl)-1,3-dihydroimidazole-2-thione hydrochloride]",markedly inhibit,8.1 ± 0.3%,
"Cl.NCCc1c[nH]c(=S)n1[C@H]1COc2c(F)cccc2C1 [Compound 6, (R)-5-(2-aminoethyl)-1-(8-fluorochroman-3-yl)-1,3-dihydroimidazole-2-thione hydrochloride]",markedly inhibit,6.9 ± 0.6%,
"NCCc1c[nH]c(=S)n1[C@@H]1COc2c(F)cc(F)cc2C1 [Compound 9, (S)-5-(2-aminoethyl)-1-(6,8-difluorochroman-3-yl)-1,3-dihydroimidazole-2-thione hydrochloride]",,50.2 ± 1.9%,
"Cl.NCCc1c[nH]c(=S)n1[C@H]1COc2c(cc(F)c(F)c2F)C1 [Compound 10, (R)-5-(2-aminoethyl)-1-(6,7,8-trifluorochroman-3-yl)-1,3-dihydroimidazole-2-thione hydrochloride]",markedly inhibit,8.2 ± 0.7%,
"COc1cc(Cl)cc2c1OC[C@H](n1c(CCN)c[nH]c1=S)C2 [Compound 11, (R)-5-(2-aminoethyl)-1-(6-chloro-8-methoxychroman-3-yl)-1,3-dihydroimidazole-2-thione hydrochloride]",,36.7 ± 4.4%,
"COc1cc(Cl)c2c(c1)C[C@@H](n1c(CCN)c[nH]c1=S)CO2 [Compound 13, (R)-5-(2-aminoethyl)-1-(6-methoxy-8-chlorochroman-3-yl)-1,3-dihydroimidazole-2-thione hydrochloride]",,94 ± 3.1%,
"NCCc1c[nH]c(=S)n1[C@H]1COc2cc(Cc3ccccc3)c(O)cc2C1 [Compound 15, (R)-5-(2-aminoethyl)-1-(6-hydroxy-7-benzylchroman-3-yl)-1,3-dihydroimidazole-2-thione hydrochloride]",,86.1 ± 2.7%,
"NCCc1c[nH]c(=S)n1[C@H]1COc2c(cccc2[N+](=O)[O-])C1 [Compound 17, (R)-5-(2-aminoethyl)-1-(8-nitrochroman-3-yl)-1,3-dihydroimidazole-2-thione hydrochloride]",,53.2 ± 3.9%,
"COc1cccc2c1OC[C@H](n1c(CCN)c[nH]c1=S)C2.Cl [Compound 19, (R)-5-(2-aminoethyl)-1-(8-methoxychroman-3-yl)-1,3-dihydroimidazole-2-thione hydrochloride]",markedly inhibit,6.9 ± 0.5%,
"NCCc1c[nH]c(=S)n1[C@H]1CCc2ccccc2C1 [Compound 20, (S)-5-(2-aminoethyl)-1-(1,2,3,4-tetrahydronaphthalen-2-yl)-1,3-dihydroimidazole-2-thione hydrochloride]",,16.8 ± 4.8%,
"Cl.NCc1c[nH]c(=S)n1[C@H]1COc2ccccc2C1 [Compound 24, (R)-5-aminomethyl-1-chroman-3-yl-1,3-dihydroimidazole-2-thione hydrochloride]",markedly inhibit,0%,
"COc1ccc2c(c1)C[C@@H](n1c(CCNCc3ccccc3)c[nH]c1=S)CO2 [Compound 25, (R)-5-(2-Benzylaminoethyl)-1-(6-methoxychroman-3-yl)-1,3-dihydroimidazole-2-thione hydrochloride]",,66 ± 4.5%,
"Cl.Oc1ccc2c(c1)C[C@@H](n1c(CCNCc3ccccc3)c[nH]c1=S)CO2 [Compound 26, (R)-5-(2-Benzylaminoethyl)-1-(6-hydroxychroman-3-yl)-1,3-dihydroimidazole-2-thione hydrochloride]",markedly inhibit,4.5 ± 1.9%,
"CNCCc1c[nH]c(=S)n1[C@H]1COc2c(F)cc(F)cc2C1.Cl [Compound 28, (R)-1-(6,8-Difluorochroman-3-yl)-5-(2-methylaminoethyl)-1,3-dihydroimidazole-2-thione hydrochloride]",markedly inhibit,2.6 ± 1.6%,
"CNCCc1c[nH]c(=S)n1[C@H]1COc2ccccc2C1.Cl [Compound 29, (R)-1-Chroman-3-yl-5-(2-methylaminoethyl)-1,3-dihydroimidazole-2-thione hydrochloride]",markedly inhibit,2.2 ± 2.5%,

# Second part, led by results:
inhibition of DβH activity (in words),remaining activity at 5 µM,Structure (SMILES),further results
markedly inhibit,8 ± 0.1%,"Cl.NCCc1c[nH]c(=S)n1[C@H]1COc2ccc(F)cc2C1 [Compound 7, (R)-5-(2-aminoethyl)-1-(6-fluorochroman-3-yl)-1,3-dihydroimidazole-2-thione hydrochloride]",
markedly inhibit,9.4 ± 0.7%,"Cl.NCCc1c[nH]c(=S)n1[C@H]1COc2cc(F)c(F)cc2C1 [Compound 8, (R)-5-(2-aminoethyl)-1-(6,7-difluorochroman-3-yl)-1,3-dihydroimidazole-2-thione hydrochloride]",
markedly inhibit,3 ± 0.5%,"Cl.NCCc1c[nH]c(=S)n1[C@H]1COc2ccccc2C1 [Compound 12, (R)-5-(2-aminoethyl)-1-chroman-3-yl-1,3-dihydroimidazole-2-thione hydrochloride]",
,77.9 ± 2.2%,"CC(=O)Nc1ccc2c(c1)C[C@@H](n1c(CCN)c[nH]c1=S)CO2 [Compound 14, (R)-5-(2-aminoethyl)-1-[6-(acetylamino)chroman-3-yl]-1,3-dihydroimidazole-2-thione hydrochloride]",
markedly inhibit,0%,"Cl.NCCc1c[nH]c(=S)n1[C@H]1COc2ccc(O)cc2C1 [Compound 16, (R)-5-(2-aminoethyl)-1-(6-hydroxychroman-3-yl)-1,3-dihydroimidazole-2-thione hydrochloride]",
,94.8 ± 1.2%,"NCCc1c[nH]c(=S)n1[C@H]1COc2ccc([N+](=O)[O-])cc2C1 [Compound 18, (R)-5-(2-aminoethyl)-1-(6-nitrochroman-3-yl)-1,3-dihydroimidazole-2-thione hydrochloride]",
,125 ± 6.5%,"NCCc1c[nH]c(=S)n1[C@H]1COc2c(O)cccc2C1 [Compound 21, (R)-5-(2-aminoethyl)-1-(8-hydroxychroman-3-yl)-1,3-dihydroimidazole-2-thione hydrochloride]",
,17.8 ± 2.1%,"NCc1c[nH]c(=S)n1[C@H]1COc2ccc(O)cc2C1 [Compound 22, (R)-5-aminomethyl-1-(6-hydroxychroman-3-yl)-1,3-dihydroimidazole-2-thione hydrochloride]",
,54.5 ± 9.9%,"COc1ccc2c(c1)C[C@@H](n1c(CCN)c[nH]c1=S)CO2 [Compound 23, (R)-5-(2-aminoethyl)-1-(6-methoxychroman-3-yl)-1,3-dihydroimidazole-2-thione hydrochloride]",
,15.5 ± 5.8%,"CNCCc1c[nH]c(=S)n1[C@H]1COc2ccc(O)cc2C1 [Compound 27, (R)-1-(6-Hydroxychroman-3-yl)-5-(2-methylaminoethyl)-1,3-dihydroimidazole-2-thione hydrochloride]",
